Measurements reported in the supplement of paper PMC13380429.

Experiments:
[1] = system: A549-ACE2 infected with SARS-CoV-2; assay: SARS-CoV-2 infection rate relative to DMSO; higher = more infection; conditions: 24 h
A549-ACE2 [2] = assay: phospholipidosis EC50; higher = less potent phospholipidosis inducer
[3] = system: A549-ACE2 infected with SARS-CoV-2; assay: cell count relative to DMSO; higher = less toxic; conditions: 24 h
HepG2 [4] = assay: relative viability EC50 (midpoint between 100% and the lowest measured viability); higher = less toxic; conditions: 72 h
Caco-2 [5] = assay: as above; conditions: 72 h
Vero E6 [6] = assay: as above; conditions: 72 h
U2OS [7] = assay: as above; conditions: 72 h
[8] = system: A549-ACE2 infected with SARS-CoV-2; assay: morphology score (similarity to uninfected cells); higher = more like uninfected cells; conditions: 24 h
Calu-3 [9] = assay: cell viability relative to DMSO; higher = less toxic; conditions: 72 h
HepG2 [10] = assay: as above; conditions: 72 h
Caco-2 [11] = assay: as above; conditions: 72 h
Vero E6 [12] = assay: as above; conditions: 72 h
U2OS [13] = assay: as above; conditions: 72 h
Calu-3 [14] = assay: drug sensitivity score (DSS) for viability; higher = more toxic; extreme values may be limits of the assay; conditions: 72 h
HepG2 [15] = assay: as above; conditions: 72 h
Caco-2 [16] = assay: as above; conditions: 72 h
Vero E6 [17] = assay: as above; conditions: 72 h
U2OS [18] = assay: as above; conditions: 72 h
A549-ACE2 [19] = assay: drug-induced phospholipidosis relative to tamoxifen; higher = more phospholipidosis
Calu-3 [20] = assay: relative viability EC50 (midpoint between 100% and the lowest measured viability); higher = less toxic; conditions: 72 h

Fc1cc(-c2cccc3ncc(-c4cnn(C5CCNCC5)c4)nc23)cc(F)c1CN1CCOCC1 [NVP-BSK805]
Conditions	SARS-CoV-2 infection rate [%]	cell count [%]	cell viability [%]	morphology score	phospholipidosis EC50 [µM]
A549-ACE2 [2], 24 h	–	–	–	–	3.94
A549-ACE2 [2], 48 h	–	–	–	–	9.74
A549-ACE2 [2], 72 h	–	–	–	–	4.49
Caco-2 [11], 1 nM	–	–	99.5	–	–
Caco-2 [11], 10 nM	–	–	98.8	–	–
Caco-2 [11], 100 nM	–	–	104	–	–
Caco-2 [11], 1000 nM	–	–	105	–	–
Caco-2 [11], 10000 nM	–	–	39.8	–	–
Calu-3 [9], 1 nM	–	–	99.5	–	–
Calu-3 [9], 10 nM	–	–	97.2	–	–
Calu-3 [9], 100 nM	–	–	95	–	–
Calu-3 [9], 1000 nM	–	–	104	–	–
Calu-3 [9], 10000 nM	–	–	69.6	–	–
HepG2 [10], 1 nM	–	–	106	–	–
HepG2 [10], 10 nM	–	–	110	–	–
HepG2 [10], 100 nM	–	–	96.2	–	–
HepG2 [10], 1000 nM	–	–	93.1	–	–
HepG2 [10], 10000 nM	–	–	35.8	–	–
U2OS [13], 1 nM	–	–	101	–	–
U2OS [13], 10 nM	–	–	101	–	–
U2OS [13], 100 nM	–	–	97.6	–	–
U2OS [13], 1000 nM	–	–	97.2	–	–
U2OS [13], 10000 nM	–	–	22.9	–	–
Vero E6 [12], 1 nM	–	–	97.9	–	–
Vero E6 [12], 10 nM	–	–	102	–	–
Vero E6 [12], 100 nM	–	–	100	–	–
Vero E6 [12], 1000 nM	–	–	99.9	–	–
Vero E6 [12], 10000 nM	–	–	48.4	–	–
[1], 0.1 µM	96	–	–	–	–
[1], 0.3 µM	100	–	–	–	–
[1], 1 µM	86	–	–	–	–
[1], 3 µM	45	–	–	–	–
[3], 0.1 µM	–	102	–	–	–
[3], 0.3 µM	–	103	–	–	–
[3], 1 µM	–	105	–	–	–
[3], 3 µM	–	110	–	–	–
[8], 0.1 µM	–	–	–	0.17	–
[8], 0.3 µM	–	–	–	0.13	–
[8], 1 µM	–	–	–	0.47	–
[8], 3 µM	–	–	–	0.68	–

Conditions	drug sensitivity score	relative viability EC50 [µM]
Caco-2 [5]	–	3.55
Caco-2 [16]	2.9	–
Calu-3 [14]	1.1	–
HepG2 [4]	–	2.28
HepG2 [15]	4.6	–
U2OS [7]	–	2.9
U2OS [18]	4.6	–
Vero E6 [6]	–	3.15
Vero E6 [17]	2.7	–

drug-induced phospholipidosis [%], A549-ACE2 [19]
Conditions	0.3 µM	0.833333 µM	3.33333 µM	6.66667 µM	10 µM	30 µM
24 h	5.98	16	55.1	93.5	113	119
48 h	2.53	10.2	51.2	101	134	–
72 h	5.16	6.57	55.6	119	–	–

O=C(COc1ccc(Cl)cc1)N[C@H]1CC[C@H](NC(=O)COc2ccc(Cl)cc2)CC1 [ISRIB]
Conditions	SARS-CoV-2 infection rate, [1] [%]	cell count, [3] [%]	cell viability, Caco-2 [11] [%]	cell viability, Calu-3 [9] [%]	cell viability, HepG2 [10] [%]	cell viability, U2OS [13] [%]	cell viability, Vero E6 [12] [%]	morphology score, [8]
1 nM	–	–	98.5	107	98.4	99.7	92.2	–
10 nM	–	–	97.1	88.2	100	96.2	98.4	–
100 nM	–	–	95.1	101	105	99	97.2	–
0.3 µM	100	99	–	–	–	–	–	-0.01
1000 nM	–	–	96.6	101	100	96	95.2	–
3 µM	96	103	–	–	–	–	–	0.03
10 µM	103	99	–	–	–	–	–	0.01
10000 nM	–	–	106	99.1	96.3	99.2	91.3	–
30 µM	108	99	–	–	–	–	–	-0.2

Conditions	drug sensitivity score	relative viability EC50 [µM]
Caco-2 [5]	–	> 10
Caco-2 [16]	0	–
Calu-3 [14]	0	–
Calu-3 [20]	–	> 10
HepG2 [4]	–	> 10
HepG2 [15]	0	–
U2OS [7]	–	> 10
U2OS [18]	0	–
Vero E6 [6]	–	> 10
Vero E6 [17]	0	–

drug-induced phospholipidosis [%], A549-ACE2 [19]
Conditions	0.3 µM	0.833333 µM	3.33333 µM	6.66667 µM	10 µM	30 µM
24 h	-0.51	0.36	-2.23	-2.98	3.29	-1.76
48 h	0.57	-0.91	-1.5	0.01	2.91	2.54
72 h	-0.626	-0.0303	-1	1.31	3.63	5.83
